Here are results for 88 compounds from a melting point compilation (Tetko et al.; mined from patent text by program, amines drawn as free bases though some values may be those of a salt).

SMILES strings stand for the structures. Non-standard residues stand in square brackets, D forms with d. Residues, ends and D or L forms follow the SMILES beside them. *: point of attachment. Tos = Cc1ccc(S(=O)(=O)*)cc1; Sar = CNCC(=O)O

What is called melting point is the temperature of the solid-liquid transition. As to `COc1cc(-n2cnc3cc(-c4ccc(Cl)cc4)sc3c2=O)ccc1OCCN1CCCC1`, the melting point is 214 to 215 °C.

Compound `CCOC(=O)C(O)c1oc(-n2ccnc2C)nc1-c1ccc(Cl)cc1` (stereo not drawn) had a melting point of 197 to 198 °C.

Compound `Cc1ncc2n1-c1ccc(Cl)cc1C(c1ccccc1F)N(C)C2` (stereo not drawn) displayed a melting point of 156 to 158 °C.

In turn, `O=C1OC(c2ccc(F)cc2)C(Cn2cncn2)(c2ccc(Cl)cc2Cl)O1` (stereo not drawn) returned a melting point of 191 to 192 °C.

Consider `CC(O)CCCCc1ccc(S(N)(=O)=O)s1` (stereo not drawn), for which the melting point is 75 to 76 °C.

Consider `Cc1cccc(Cl)c1C(=O)N[C@@H](Cc1ccc(-c2cccn(C)c2=O)cc1)C(=O)O`, for which the melting point is 204 to 210 °C.

`Cc1ccc(Nc2nnc(Cc3ccncc3)c3ccccc23)cc1C` yielded a melting point of 180 to 181 °C.

With `CC1=CC2=C(C)C3(CC3)C(C)(O)C(=O)C2=C1` (stereo not drawn), the melting point was in the range of 138 to 140 °C.

On to `O=C(NCc1ccc(I)cc1Cl)C1CC1`, for which the melting point is 158 to 160 °C.

With `Cn1cc(C2=C(c3c(S(C)=O)n(C)c4ccccc34)C(=O)NC2=O)c2ccccc21` (stereo not drawn), the melting point was found to be 300 °C.

`COC(=O)COc1ccc(-c2ccc[nH]2)cc1` registered a melting point of 136 to 137 °C.

Turning to `Cc1cc(C2CCCCC2)ccc1C(=O)O`, the melting point lay in the range of 129 to 130 °C.

`O=C(Nc1ccccc1OCCCBr)c1cccc2[nH]ccc12` returned a melting point of 145 °C.

The compound `COc1ccccc1CNC1CCN(C2CCN(C(=O)c3cc(C)cc(C)c3)C(Cc3ccccc3)C2)CC1` (stereo not drawn) showed a melting point of 71.2 °C.

Compound `N#Cc1c2ccccc2c(-c2cc(Br)c(O)c(Br)c2)c2c1sc1ccccc12` came in with a melting point of 321 to 323 °C.

In turn, `CC(C)OC(=O)c1ccccc1SNc1ccc(OC(F)(F)F)cc1` registered a melting point of 120 to 121 °C.

In the case of `CC1=Cc2c(cccc2-c2cccc3ccccc23)C1`, the melting point is 143 °C.

On to `COC(=O)[C@@](C#N)(Cc1ccc(Br)cc1)[C@H](c1ccccc1OC)c1cccc2ccccc12` (relative stereo), for which the melting point lay in the range of 218 to 219 °C.

The compound `COc1cc2ncnc(N3CCCc4ccccc43)c2cc1SC` returned a melting point of 193 to 196 °C.

Turning to `CC(C)(C)[Si](C)(C)Oc1ccc2c(c1)OC(O)c1c-2sc2cc(O[Si](C)(C)C(C)(C)C)ccc12` (stereo not drawn), the melting point is 162 to 164 °C.

Take `O=C1C(=O)c2ccccc2C2=C1SCC1(CCN(S(=O)(=O)c3c(Cl)nc4sccn34)CC1)O2`: the melting point is 265 to 267 °C.

Take `CC(C)(CC(=O)Nc1ccc2oc(-c3ccc4ccc(Cl)cc4n3)cc2c1)C(=O)O`: the melting point was 228 to 230 °C.

Compound `O=C(O)CC(CC(=O)Nc1cc(OCC=C(Cl)Cl)c(Cl)cc1F)C(F)(F)F` (stereo not drawn) returned a melting point of 117 to 118 °C.

`COc1cccc2ccc(C(F)(F)F)nc12` yielded a melting point of 88 to 89 °C.

For the compound `COc1cc(CCCC2OC(=O)NC2=O)ccc1O` (stereo not drawn), the melting point lay in the range of 147 to 148 °C.

As to `CCOC(=O)c1cc2ccc(F)c(C)c2[nH]1`, the melting point was 149 °C.

Turning to `O=C1NC(=O)C2(C=Cc3c2csc3Cl)N1` (stereo not drawn), the melting point is 224 to 225 °C.

`CC(=O)Nc1ccc(/C=C/C(=O)NCC(=O)N(C)c2ccc(Cl)c(CO)c2Cl)cn1` returned a melting point of 207 to 209 °C.

Compound `NC(=O)c1cc(C(=O)O)c(O)c2ncc(Cc3ccc(F)cc3)cc12` yielded a melting point of 265 to 266 °C.

Take `COC(=O)CCCCCNC(=O)/C=C/C=C/c1ccccc1[N+](=O)[O-]`: the melting point is 115 to 117 °C.

As for `NCc1ccc([N+](=O)[O-])cc1O`, the melting point was 210 to 215 °C.

`CC(C)(C)C(=O)Nc1n[nH]c(C(C)(C)C)c1Cl` had a melting point of 156 to 158 °C.

As for `CN(C)c1ccc(C(=O)CC(=O)C(C)(C)C)cc1`, the melting point was in the range of 61.5 to 61.8 °C.

Turning to `CN1C(=O)C2(COc3cc4c(cc32)OCCO4)c2c(C(=O)Oc3ccccc3)cccc21` (stereo not drawn), the melting point was 184 to 186 °C.

The compound `CCOC(=O)C=Cc1ccc(Oc2ccc([N+](=O)[O-])cc2)c(Cl)c1Cl` gave a melting point of 145 to 146 °C.

`CCCn1c(=O)[nH]c2c(C)ccc(OCC(O)CN3CCC(COc4ccccc4)CC3)c21` (stereo not drawn) registered a melting point of 91 to 93 °C.

As for `CCn1ncc2c3noc(-c4cccc(F)c4)c3cnc21`, the melting point was 182 to 184 °C.

Compound `CCCCCCCCc1ccc(OCC(=O)Cn2cccc2)cc1` displayed a melting point of 58 to 59 °C.

As to `CCOC(=O)C(C#N)=CNc1ccc(OC)c(OC)c1`, the melting point was 150 to 155 °C.

As for `O=C1OCCN1C(=O)c1ccccc1`, the melting point is 166 to 170 °C.

`COc1ccc(C=CC=C(C#N)C#N)cc1` came in with a melting point of 160 °C.

Take `CCCN(CCC)c1c([N+](=O)[O-])cc(C2OCCS2)cc1[N+](=O)[O-]` (stereo not drawn): the melting point was 111 to 112 °C.

For `Nc1scc2c(C(=O)O)nn(-c3ccc(Cl)cc3)c(=O)c12`, the melting point was > 300 °C.

In the case of `Nc1nc(N)c2nc(-c3cccc(O)c3)cnc2n1`, the melting point was > 300 °C.

As to `CC1=NC(NC(=O)Nc2cccc(C)c2)C(=O)N(CC(=O)NC(C)(C)C)c2c(C)cccc21` (stereo not drawn), the melting point lay within 243 to 244 °C.

For the compound `COC(=O)C1CCN(Cc2ccc(-c3ccc4c(Nc5ccc(Sc6nccn6C)c(Cl)c5)c(C#N)cnc4c3)nc2)CC1`, the melting point fell in the range of 135 to 137 °C.

With `COc1cc(OC)c(/C=C/C(=O)Nc2ccc(OC)c(N)c2)c(OC)c1`, the melting point is 92 to 94 °C.

On to `COc1cccc(CN=C(Cc2ccccc2)N2CC3C(=O)CCC(c4ccccc4)(c4ccccc4)C3C2)c1` (stereo not drawn), for which the melting point is 127 °C.

In turn, `COc1ccc(C(=O)Nc2ccc(C(=O)NC(C)(C)C)cc2)cc1C12CC3CC(CC(C3)C1)C2` displayed a melting point of 270 to 273 °C.

In turn, `CC(=O)c1ccc(-c2cc(N3CCCCC3)c(C#N)c3c2-c2ccccc2C3)cc1` had a melting point of 182 to 184 °C.

In the case of `CCCS(=O)(=O)Oc1c(C(=O)c2ccc3c(c2C)C(SCC)CCS3(=O)=O)cnn1CC` (stereo not drawn), the melting point is 140 to 145 °C.

In turn, `CCCc1c(OCc2ccc(/C=C3\SC(=S)NC3=O)cc2)ccc(C(=O)c2ccccc2)c1O` had a melting point of 229 to 230 °C.

Compound `O=C1CN2Cc3ccc(OCCCC(=O)N(CCO)CCCCC4CCCCC4)cc3N=C2N1` returned a melting point of 113 to 114 °C.

With `O=C1c2ccccc2C(=O)N1CCn1nc(O)c2[nH]c3cc(Cl)ccc3c(=O)c2c1=O`, the melting point fell in the range of 349 to 352 °C.

In the case of `COc1ccc(C2(O)CCNCC2)cc1`, the melting point was in the range of 120 to 122 °C.

Consider `NC(CF)(Cc1ccc(O)c(O)c1)C(=O)O` (stereo not drawn), for which the melting point amounted to 230 °C.

The compound `CC(=O)N(C(C)=O)c1c(Cl)c(C)nn1C(CCN1C(=O)c2ccccc2C1=O)=NOS(=O)(=O)c1ccc(C)cc1` displayed a melting point of 143 to 147 °C.

Take `CC(C)(C=O)Oc1ccc(Cl)cc1C#N`: the melting point was in the range of 85 to 88 °C.

On to `Cc1c(NC(=O)OC(C)(C)C)cnn1-c1cccnc1`, for which the melting point was 89 to 91 °C.

Compound `CC1(C)CC(=O)Nc2ccc(-c3cccc(C#N)c3)cc21` came in with a melting point of 190 to 192 °C.

As to `O=c1[nH]c2ccc(Cl)cc2n1C1CCCCC1`, the melting point is 206 to 208 °C.

`Cc1ccc(C2CCN(C(=O)CCC(=O)c3ccc4c(c3)CN(C(C)C)CC4)CC2)cc1` displayed a melting point of 78 to 80 °C.

`Cc1ccc(S(=O)(=O)N(C)CC(=O)N[C@@H](Cc2ccccc2)C(=O)O)cc1` (Tos-[Sar]-Phe-OH) registered a melting point of 128 to 130 °C.

As for `CCNC(=O)c1ccc(C#CCc2ccc3c(c2)C(C)(C)CCC3(C)C)cc1`, the melting point lay within 128 to 129 °C.

For the compound `O=CN1CCCN2c3ccccc3Cc3ccccc3C2C1` (stereo not drawn), the melting point was in the range of 146 to 148 °C.

For `N#Cc1ccc(N(Cc2ccc(Br)cc2)n2cnnc2)cc1-c1ccc(O)cc1`, the melting point was in the range of 222 to 224 °C.

`C[C@H](C(=O)O)[C@H](O)c1ccccc1` had a melting point of 89 to 90 °C.

As for `c1ccc(-n2c(Cc3cccnc3)nc3ccccc32)cc1`, the melting point is 115 to 116 °C.

`CCc1nc2c(cnn2CC)c(NC2CCOCC2)c1CNC(=O)c1cccc(C(=O)O)c1` showed a melting point of 207 to 209 °C.

`COc1ccc2c3c([nH]c2c1)C(=S)C(CC1CCN(C(=O)OC(C)(C)C)CC1)C3` (stereo not drawn) displayed a melting point of 188 to 189 °C.

As for `CC(=O)OCC(C)C1=CCC2C3CC=C4CC(OC(C)=O)CC(OC(C)=O)C4(C)C3CCC12C` (stereo not drawn), the melting point is 116 to 118 °C.

`COc1cc(C(=O)c2ccc(C(F)(F)F)cc2)ccc1OCc1ccccc1`: the melting point was determined as 101 °C.

In the case of `COC(=O)Nc1nc2cc(C(c3cccc(Cl)c3)n3ccnc3)ccc2[nH]1` (stereo not drawn), the melting point came out at 168 °C.

In turn, `O=C1C=C(c2ccccc2)S(=O)(=O)C(c2cccs2)=C1` came in with a melting point of 162 to 164 °C.

In the case of `Cc1nc(C(Cl)(Cl)Cl)nc(OC(=O)N(C)C)c1Cl`, the melting point was in the range of 87 to 88 °C.

Compound `CCCc1nc2c(N)nc(C)c(C)c2n1CCCCCS(C)(=O)=O` registered a melting point of 145 to 146 °C.

Compound `CN1CCC(C)(c2nc(-c3ccncc3)c(-c3ccc(F)cc3)[nH]2)CC1` came in with a melting point of 227 to 229 °C.

For `CC(C)SC(=O)N1CCN(c2ccc3ncc(Br)n3n2)CC1`, the melting point lay in the range of 186 to 187 °C.

Turning to `O=C(O)c1ccc2c(ccn2Cc2cccc([N+](=O)[O-])c2)c1`, the melting point lay in the range of 251 to 254 °C.

Compound `CC(=O)N(C1=C(Cl)C(=O)c2c(cnn2C)C1=O)C1CC1` showed a melting point of 171 °C.

On to `COCOc1cc2c(c3ccccc13)Nc1ccccc1S2`, for which the melting point worked out at 103 °C.

`CC(C)CNC(=O)NS(=O)(=O)c1ccc(CCNC(=O)N2CCCCC2=O)cc1` registered a melting point of 179 to 181 °C.

For the compound `O=C(O)CCCCC(=O)c1ccc2cc(O)ccc2c1`, the melting point was in the range of 191 to 193 °C.

For `CCCCCCC(C(=O)N1CCC[C@H]1C(=O)O)n1cnc(NC(=O)c2ccccc2S(=O)(=O)O)c1` (stereo partly drawn), the melting point is 190 to 195 °C.

The compound `COc1ccc(O)c(Br)c1` gave a melting point of 37 to 38 °C.

On to `CN(C)C1CCN(c2nc(N3CCOCC3)c3ncnc(NCc4ccccc4)c3n2)CC1`, for which the melting point was in the range of 148 to 150 °C.

The compound `CC(=O)Oc1cccc(C(C)=NOCCOc2ccc(CC3SC(=O)NC3=O)cc2)c1` (stereo not drawn) showed a melting point of 30 to 50 °C.

As for `CCOCn1nccc1C(O)c1ccc(OC)c(Cl)c1Cl` (stereo not drawn), the melting point was 155 to 157 °C.
